Publication PMC11555526, “Development of 2-Aminoadenine-Based Proteolysis-Targeting Chimeras (PROTACs) as Novel Potent Degraders of Monopolar Spindle 1 and Aurora Kinases” (ACS Pharmacology & Translational Science, 2024)
Where “and” joins values, the source holds several entries; their conditions need not be identical. Equal values may be shown once.

Key:
[1] = target: T1, AURKA (MV4-11^AURKA-HiBiT cells) (Homo sapiens, UniProt O14965); experiment: HiBiT assay, AURKA degradation; assay type: cell-based; details: for Dmax (maximal degradation) AURKA / DC50: 6 h treatment, MV4-11^AURKA-HiBiT cells; for DC50: read-out: DC50 (half-maximal degradation concentration) AURKA
T1 construct: expressed in transfected cells; host or cells: MV4-11, lentiviral transduction
T1 sequence (O14965 1-403): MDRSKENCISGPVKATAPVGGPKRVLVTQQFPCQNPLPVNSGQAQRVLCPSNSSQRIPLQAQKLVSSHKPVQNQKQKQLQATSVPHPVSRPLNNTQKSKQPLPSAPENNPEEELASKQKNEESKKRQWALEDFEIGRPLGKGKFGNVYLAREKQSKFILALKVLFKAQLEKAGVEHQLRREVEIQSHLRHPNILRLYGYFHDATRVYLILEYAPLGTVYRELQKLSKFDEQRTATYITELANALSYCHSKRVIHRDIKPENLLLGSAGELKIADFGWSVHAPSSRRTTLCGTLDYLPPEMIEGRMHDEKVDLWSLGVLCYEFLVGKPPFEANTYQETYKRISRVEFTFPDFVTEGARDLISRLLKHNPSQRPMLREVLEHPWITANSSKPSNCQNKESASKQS
How it was run: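 MV4-11 lines stably expressing HiBiT-tagged AURKA, AURKB or TTK (lentiviral) were treated with serial compound dilutions for the indicated times. Remaining tagged protein was read by lytic HiBiT luminescence, and DC50 was fitted with a four-parameter dose–response equation using concentrations showing sigmoidal behaviour.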

[2] = test system: MV4-11 cells (naive); experiment: alamarBlue cell viability assay; assay type: cell-based, human; details: 72 h treatment, MV4-11 cells (naive); read-out: EC50 (concentration that decreases cell viability by 50%)
How it was run: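 Cells exposed to compound concentration series or vehicle for 72 h (unless otherwise stated); alamarBlue added a few hours before end point. Read-out by fluorescence (ex 550/em 600 nm) or absorbance (570 nm, 600 nm reference).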

[3] = target: T2, AURKB (Homo sapiens, UniProt Q96GD4); experiment: Immunoblot of AURKB in naive MV4-11 cells; assay type: cell-based; details: 6 h, 10 µM
T2 construct: endogenous in cells; host or cells: naive MV4-11
Protocol: The cells were treated with compounds or vehicle for indicated time points and lysed in RIPA lysis buffer (50 mM HEPES pH 7.9, 140 mM NaCl, 1 mM EDTA, 1% Triton X-100, 0.1% SDS, 0.1% sodium deoxycholate) containing protease and phosphatase inhibitors (Sigma) for 20 min at 4 °C. Cell lysates were cleared by centrifugation, and protein concentration was determined with bicinchoninic acid assay. Equal amounts of protein per sample were separated by Bis-Tris-PAGE and transferred to PVDF membranes (Millipore). The membranes were blocked with 5% (w/v) nonfat dry milk in TBS-T [20 mM Tris–HCl, pH 7.5, 150 mM NaCl, 0.1% (v/v) Tween-20] for 1 h at room temperature and incubated with primary antibody at 4 °C overnight. Visualization was carried out using horseradish peroxidase (HRP)-labeled secondary antibodies and detected using a chemiluminescent HRP substrate (Millipore) in LAS3000 or LAS4000 mini (Fujifilm). Vinculin, GAPDH, or B-actin were used as a loading control. The loading control was probed along with the target antibody by cutting the membrane. For targets with similar molecular weights, the samples were run in duplicate and probed with their respective loading controls, although only one control was shown in the figure for all targets. The signal was quantified using ImageJ or Image Studio Lite against the corresponding loading controls. Antibodies used in this study were as follows: Aurora A/AIK (Cell Signaling Technology, 3092), Aurora B (Bethyl Laboratories, A300–431A), TTK (Santa Cruz Biotechnology, sc-56968), GAPDH (Cell Signaling Technology, 2118), B-Actin (Sigma, A5441), and Vinculin (Sigma, V9131).
α GAPDH α Vinculin α B-Actin
Figure S2: Cellular degradation studies of SF1-based compounds. […]
Immunoblots of TTK and AURKB. Naive MV4-11 cells were treated with indicated concentration of 44 or 47 G)
(E), 18 (F), and 14 or 20 (G) for 6 h and compared with vehicle treated cells. […]
All HiBiT data are represented as a mean ±s.d. from n=2 replicates. […]

T2 sequence (Q96GD4 whole entry): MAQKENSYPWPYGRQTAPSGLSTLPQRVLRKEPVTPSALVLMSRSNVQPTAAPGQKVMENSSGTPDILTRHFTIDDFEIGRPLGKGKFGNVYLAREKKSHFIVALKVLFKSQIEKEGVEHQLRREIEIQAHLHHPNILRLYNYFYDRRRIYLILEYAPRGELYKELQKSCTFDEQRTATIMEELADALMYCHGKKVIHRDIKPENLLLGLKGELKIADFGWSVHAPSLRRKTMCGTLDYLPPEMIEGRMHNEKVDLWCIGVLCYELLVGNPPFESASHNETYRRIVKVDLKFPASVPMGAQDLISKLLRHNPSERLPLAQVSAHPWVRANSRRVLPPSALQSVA

Dmax (maximal degradation) AURKA [1] | DC50 [1] | EC50 [2] [nM] | relative AURKB level (immunoblot quantification, vehicle = 1.00) [3] | efficiency of AURKA degradation (Dmax) relative to AURKB and TTK ([1]; HiBiT, 6 h) | selectivity of AURKA degradation (DC50) relative to AURKB and TTK ([1]; HiBiT, 6 h) | Structure (SMILES)
50.10% | 46 nM | 214 | 0.87 |  |  | CC(C)S(=O)(=O)c1ccccc1Nc1nc(Nc2ccc(N3CCN(C(=O)CCCC(=O)Nc4cccc5c4C(=O)N(C4CCC(=O)NC4=O)C5=O)CC3)cc2)nc2[nH]cnc12 (stereo not shown) [Compound 14]
71% and 70.70% | 68 nM and 67.7 nM | 577 |  | 1.5–2.4 times | 3.7–4.2 fold | CC(C)S(=O)(=O)c1ccccc1Nc1nc(Nc2ccc(N3CCN(C(=O)CNC(=O)CCCC(=O)Nc4cccc5c4C(=O)N(C4CCC(=O)NC4=O)C5=O)CC3)cc2)nc2[nH]cnc12 (stereo not shown) [Compound 20]
35.20% | 1700 nM | 1160 | 0.79 |  |  | Cc1ncsc1-c1ccc(CNC(=O)[C@@H]2C[C@@H](O)CN2C(=O)[C@@H](NC(=O)CCCC(=O)N2CCN(c3ccc(Nc4nc(Nc5ccccc5S(=O)(=O)C(C)C)c5nc[nH]c5n4)cc3)CC2)C(C)(C)C)cc1 [Compound 44]
38.00% | 814 nM | 2560 |  |  |  | Cc1ncsc1-c1ccc(CNC(=O)[C@@H]2C[C@@H](O)CN2C(=O)[C@@H](NC(=O)COCCOCC(=O)N2CCN(c3ccc(Nc4nc(Nc5ccccc5S(=O)(=O)C(C)C)c5nc[nH]c5n4)cc3)CC2)C(C)(C)C)cc1 [Compound 49]
